From patent publication US20260199367A1, “PLK1 DEGRADATION INDUCING COMPOUNDS WITH INCREASED RIGIDITY” (UPPTHERA, INC., priority 2022, published 2026)

Columns and labels:
Format in all cases: cell-based
NCI-H69 (H69) cell line = test: Cell viability assay for NCI-H69 cell line; details: Homo sapiens, NCI-H69, 120 h, 5 days, EZ-Cytox, 0.46-3000 nM
Source text: (§1) The NCI-H69 (hereafter H69) and NCI-H526 (hereafter H526) cell lines were purchased from Korea Cell Line Bank (KCLB, Seoul, Korea). For cell culture, RPMI 1640 (Gibco, Cat. No. 22400-089; Lot. No. 2537146), FBS (Gibco, Cat. No. 16000-044; Lot. No. 2511328P), Penicillin/Streptomycin (PS) (Gibco, Cat. No. 15140-122; Lot. No. 2441887), 75T cell culture flask (SPL, Cat. No. 71075), 175T cell culture flask (SPL, Cat. No. 71175), 96-well cell culture plate (SPL, Cat. No. 30096), PBS pH 7.4 (Gibco, Cat. No. 10010-023; Lot. No. 2509235), TrypLE™ Express (Gibco, Cat. No. 12605-010; Lot. No. 2323417), Cell Counter (Hematocytometer)(As one, Cat. No. 4-458-01), and 0.4% Trypan Blue Solution (DYNEBIO, Cat. No. CBT3710; Lot. No. 20221111) were used.
(§2) The compounds of Examples were completely dissolved in DMSO (Sigma-Aldrich Cat. No. D2438, Lot. No. RNBL7287) and used in the experiment. 3×10^4 cells were seeded for each well of a 96-well plate (SPL), and the cells were cultured in total volume of 150 μl. Each compound was diluted 3-folds from the highest concentration of 3000 nM to the lowest concentration of 0.46 nM. After treating the compound to each well to make the total volume of 200 μl, it was cultured in a CO2 incubator (Thermo Fisher Science, Cat. No. 4111) for 5 days. Then, after treating EZ-Cytox (DOGEN, Cat.NO. EZ-3000, Lot. No. DLS2308) 20 μl in each well, it was cultured in CO2 incubator for 4 hours. The absorbance of the completely cultured sample was measured by setting the wavelength of a plate reader (BMG Labtech, CLARIOstar Plus) to […], and was measured after shaking for 3 minutes in a plate reader before measurement.
(§3) (A: IC50 is less than 20 nM, B: IC50 is 50 nM or less, C: IC50 is 100 nM or less)

[1] = test system: NCI-H526 (H526) cell line; test: Cell viability assay for NCI-H526 cell line; details: Homo sapiens, NCI-H526, 120 h, 5 days, EZ-Cytox, 0.46-3000 nM
Source text: as §1, §2, §3

PLK1 = target: T1, PLK1 (Homo sapiens, UniProt P53350); test: Luciferase assay for PLK1 in HeLa LgBit (PLK1-HiBit KI) cell line; details: released after thymidine block, compound 300 nM, luminescence after 9 hours
T1 construct: endogenous in cells; host or cells: HeLa LgBit (PLK1-HiBit KI): HeLa cells stably expressing LgBit, with CRISPR/Cas9 knock-in of HiBit at the endogenous PLK1 locus
Method: A HeLa cell line in which the LgBit vector was transfected and expressed stably was prepared. Then, after constructing gRNA and donor to express the HiBit amino acid sequence behind the C-terminal of the PLK1 gene, which was inherent in the cell, it was inserted into the cell together with a vector capable of expressing CRISPR/Cas9. Only the cells in which the insertion was completed and knock-in had progressed were selected, sub-cultured and used.
The compounds of Examples were completely dissolved in DMSO (Sigma-Aldrich Cat. No. D2438, Lot. No. RNBL5438) and used in the experiment.
In the case of HeLa LgBit (Plk1-HiBit KI), the compounds were treated after being released after thymidine block, and the process was as follows. Thymidine (Sigma-Aldrich Cat. No. T9250-5G) was completely dissolved in ddH2O and used in the experiment. For thymidine block, the products were treated with 2 mM of thymidine and then incubated for 24 hours. For release and chemical treatment, the medium was suctioned and washed with 1×PBS. TrypLE™ was added and incubated in 37° C. CO2 incubator (Thermo Fisher Science, Cat. No. 4111) for 5 mins. Cells neutralized by adding complete media were counted through a counter. For each well of a 96-well culture plate (SPL), 3.3×10^4 cells and a total medium volume of 150 μl were seeded and incubated in a CO2 incubator.
Each cell line was incubated in a CO2 incubator for 18 hours, and Endurazine (Promega, Cat. No. N257B) was added to each well to make up 4% of the total volume. After adding compounds of Examples in a 96-well white plate (SPL) to a concentration of 300 nM, the wavelength of the plate reader (BMG Labtech, CLARIOstar Plus) was set to 470-480 nM, and then the luminescence was tracked in real time.

T1 sequence (P53350 whole entry): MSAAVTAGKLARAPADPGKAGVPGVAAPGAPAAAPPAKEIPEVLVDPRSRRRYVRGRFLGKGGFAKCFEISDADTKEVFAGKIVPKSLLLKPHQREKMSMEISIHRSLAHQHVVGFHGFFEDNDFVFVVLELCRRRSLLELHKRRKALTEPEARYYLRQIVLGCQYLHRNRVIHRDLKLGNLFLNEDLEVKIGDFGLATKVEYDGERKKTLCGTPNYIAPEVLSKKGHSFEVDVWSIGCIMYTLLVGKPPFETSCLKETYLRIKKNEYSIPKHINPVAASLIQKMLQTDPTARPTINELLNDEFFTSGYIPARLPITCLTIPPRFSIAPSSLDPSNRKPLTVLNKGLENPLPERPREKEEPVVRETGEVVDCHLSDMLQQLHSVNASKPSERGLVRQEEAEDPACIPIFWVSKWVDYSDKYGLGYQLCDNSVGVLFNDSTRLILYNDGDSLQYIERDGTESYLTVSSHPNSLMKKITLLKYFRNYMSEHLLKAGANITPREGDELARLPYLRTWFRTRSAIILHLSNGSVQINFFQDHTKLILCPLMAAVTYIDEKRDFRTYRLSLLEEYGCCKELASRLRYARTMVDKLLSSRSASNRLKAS

Row | SMILES | IC50 (NCI-H69 (H69) cell line) [nM] | IC50 [1] [nM] | Value (luminescence value, PLK1-HiBit) (PLK1)
1 | CC[C@@H]1C(=O)N(C)c2cnc(Nc3ccc(-c4nnc(CNC5CCN(C(=O)C(N)CN6CCN(c7ccc(C8CCC(=O)NC8=O)cc7)CC6)CC5)o4)cc3OC)nc2N1C1CCCC1 (stereo partly drawn) [Compound 15, 3-(4-(4-(2-amino-3-(4-(((5-(4-(((R)-8-cyclopentyl-7-ethyl-5-methyl-6-oxo-5,6,7,8-tetrahydropteridin-2-yl)amino)-3-methoxyphenyl)-1,3,4-oxadiazol-2-yl)methyl)amino)piperidin-1-yl)-3-oxopropyl)piperazin-1-yl)phenyl)piperidine-2,6-dione] | ≤ 100 | ≤ 50 | 0.345
2 | CC[C@@H]1C(=O)N(C)c2cnc(Nc3ccc(C(=O)NN4CCC(C(N)CN5CCN(c6ccc(C7CCC(=O)NC7=O)cc6F)CC5)CC4)cc3OC)nc2N1C1CCCC1 (stereo partly drawn) [Compound 19, N-(4-(1-amino-2-(4-(4-(2,6-dioxopiperidin-3-yl)-2-fluorophenyl)piperazin-1-yl)ethyl)piperidin-1-yl)-4-(((R)-8-cyclopentyl-7-ethyl-5-methyl-6-oxo-5,6,7,8-tetrahydropteridin-2-yl)amino)-3-methoxybenzamide] | ≤ 50 | ≤ 50 | 0.132
3 | CC[C@@H]1C(=O)N(C)c2cnc(Nc3ccc(C(=O)NC4CCN(C5CCN(CCc6ccc(C7CCC(=O)NC7=O)cc6)CC5)CC4)cc3OC)nc2N1C1CCCC1 (stereo partly drawn) [Compound 22, 4-(((R)-8-cyclopentyl-7-ethyl-5-methyl-6-oxo-5,6,7,8-tetrahydropteridin-2-yl)amino)-N-(1′-(4-(2,6-dioxopiperidin-3-yl)phenethyl)-[1,4′-bipiperidin]-4-yl)-3-methoxy benzamide] | ≤ 50 | < 20 | 0.145
4 | COc1cc(C(=O)NN2CCC(C(N)CN3CCN(c4ccc(C5CCC(=O)NC5=O)cc4F)CC3)CC2)ccc1Nc1ncc2c(n1)N(C(C)C)CC(F)(F)C(=O)N2C (stereo not drawn) [Compound 31, N-(4-(1-amino-2-(4-(4-(2,6-dioxopiperidin-3-yl)-2-fluorophenyl)piperazin-1-yl)ethyl)piperidin-1-yl)-4-((7,7-difluoro-9-isopropyl-5-methyl-6-oxo-6,7,8,9-tetrahydro-5H-pyrimido[4,5-b][1,4]diazepin-2-yl)amino)-3-methoxybenzamide] | ≤ 50 | ≤ 50 | 0.241
5 | CC[C@@H]1C(=O)N(C)c2cnc(Nc3ccc(C(=O)N[C@H]4CC[C@H](NCC5CCN(c6ccc(C7CCC(=O)NC7=O)nc6)CC5)CC4)cc3OC)nc2N1C1CCCC1 (stereo partly drawn) [Compound 25, 4-(((R)-8-cyclopentyl-7-ethyl-5-methyl-6-oxo-5,6,7,8-tetrahydropteridin-2-yl)amino)-N-((1r,4R)-4-(((1-(6-(2,6-dioxopiperidin-3-yl)pyridin-3-yl)piperidin-4-yl)methyl)amino)cyclohexyl)-3-methoxybenzamide] | < 20 | < 20 | 0.144
6 | COc1cc(C(=O)NC2CCN(C(=O)CCN3CCN(c4ccc(NC5CCC(=O)NC5=O)cc4)CC3)CC2)ccc1Nc1ncc2c(n1)N(C1CCCC1)CC1(CC1)C(=O)N2C (stereo not drawn) [Compound 29, 4-((9′-cyclopentyl-5′-methyl-6′-oxo-5′,6′,8′,9′-tetrahydrospiro[cyclopropane-1,7′-pyrimido[4,5-b][1,4]diazepin]-2′-yl)amino)-N-(1-(3-(4-(4-((2,6-dioxopiperidin-3-yl)amino)phenyl)piperazin-1-yl)propanoyl)piperidin-4-yl)-3-methoxybenzamide] | ≤ 100 | ≤ 50 | 0.267
